As usually defined, the IC50 is the concentration at which inhibition is half-maximal.

Like-named read-outs stand apart in the source and are kept apart here.

The target in one series is T1, TDP1 (Homo sapiens, UniProt Q9NUW8).
T1 construct: made in house; host or cells: E. coli
As to the kind of experiment: Real-time fluorescence detection of TDP1 activity (FAM/BHQ1 oligonucleotide biosensor). In kind it is biochemical.

For another series, the system named is HeLa cells. As to the kind of experiment: Intrinsic cytotoxicity, EZ4U colorimetric test, HeLa. The note with it: Figure 6. In kind it is cell-based, human. The protocol:
(§1) Cytotoxicity of the compounds was examined against human cell lines HEK293A (human embryonic kidney)—WT and TDP1-deficient (Tdp1-/-), and HeLa (cervical cancer) using an EZ4U colorimetric tests (Biomedica, Vienna, Austria) or xCELLigence DP Real-Time Cell Analyzer (ACEA Biosciences, Santa Clara, CA, USA). Cell lines were obtained from the Russian Cell Culture Collection (RCCC) Institute of Cytology RAS (St. Petersburg, Russia). The cells were grown in DMEM/F12 medium (Thermo Fisher Scientific, Waltham, MA, USA), with 1× GlutaMAX (Thermo Fisher Scientific, Waltham, MA, USA), 50 IU/mL penicillin, and 50 μg/mL streptomycin (Thermo Fisher Scientific, Waltham, MA, USA), and in the presence of 10% fetal bovine serum (Biolot, Saint-Petersburg, Russia) in 5% CO2 atmosphere. Control cells were grown in the presence of 1% DMSO where indicated. After formation of a 30–50% monolayer, tested compounds were added to the medium, and the cell culture was monitored for 3 days. […] The measurements were carried out in three parallel experiments.
(§2) The intrinsic cytotoxicity of the four lead compounds (11a–d) was examined using a colorimetric test (Figure 6).

The test system of the next series is HEK293A cells. As to the kind of experiment: Intrinsic cytotoxicity, EZ4U colorimetric test, HEK293A. In kind it is cell-based, human. The note with it: Figure 6. How it is done:
as §1, §2

Setting [1] is: as repeated in Table S1, read-out: IC50.
The mark [2] stands for this setting: as repeated in Table S2, read-out: IC50.
[3] abbreviates: as repeated in Table S3, read-out: IC50.
The mark [4] stands for this setting: real-time fluorescent test, 1.5 nM TDP1, 50 nM substrate, 26 °C, read-out: IC50, TDP1 activity.

T1 sequence (Q9NUW8 whole entry): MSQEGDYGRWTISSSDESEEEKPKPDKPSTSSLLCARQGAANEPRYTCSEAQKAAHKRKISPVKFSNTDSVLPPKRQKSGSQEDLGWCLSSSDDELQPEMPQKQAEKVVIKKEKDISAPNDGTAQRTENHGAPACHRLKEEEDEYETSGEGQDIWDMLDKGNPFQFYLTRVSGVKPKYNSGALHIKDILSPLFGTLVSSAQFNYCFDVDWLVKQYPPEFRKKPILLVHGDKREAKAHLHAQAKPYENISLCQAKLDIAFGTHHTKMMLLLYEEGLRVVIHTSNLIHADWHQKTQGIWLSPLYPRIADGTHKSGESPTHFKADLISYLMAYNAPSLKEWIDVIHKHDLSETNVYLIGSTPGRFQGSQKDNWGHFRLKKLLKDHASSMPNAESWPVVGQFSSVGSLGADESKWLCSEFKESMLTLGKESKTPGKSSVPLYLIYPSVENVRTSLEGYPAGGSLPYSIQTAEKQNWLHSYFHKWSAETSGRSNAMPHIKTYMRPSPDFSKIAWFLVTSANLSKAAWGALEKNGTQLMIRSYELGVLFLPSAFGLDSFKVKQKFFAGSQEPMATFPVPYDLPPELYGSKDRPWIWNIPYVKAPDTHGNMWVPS

As to `CC(=O)c1c(O)c(C)c(O)c2c1OC1=CC(=O)/C(=C(/C)NC/C=C(\C)CCC=C(C)C)C(=O)[C@@]12C` [11b, (2R,4E)-10-Acetyl-4-(1-{[(2E)-3,7-dimethylocta-2,6-dien-1-yl]amino}ethylidene)-11,13-dihydroxy-2,12-dimethyl-8-oxatricyclo[7.4.0.0^2,7]trideca-1(13),6,9,11-tetraene-3,5-dione], at TDP1 (setting [1]), the IC50 was 0.32 µM. In addition, the “intrinsic cytotoxicity (in words)” value with HeLa cells and in the series on HEK293A cells was “completely suppressed cell growth at 100 μM” throughout.

As for `CC(=O)c1c(O)c(C)c(O)c2c1OC1=CC(=O)/C(=C(/C)NCC3=CC[C@H]4C[C@@H]3C4(C)C)C(=O)[C@@]12C` [11d, (2R,4E)-10-Acetyl-4-[1-({[(1R,5S)-6,6-dimethylbicyclo[3.1.1]hept-2-en-2-yl]methyl}amino)ethylidene]-11,13-dihydroxy-2,12-dimethyl-8-oxatricyclo[7.4.0.0^2,7]trideca-1(13),6,9,11-tetraene-3,5-dione], at TDP1 (setting [1]), the IC50 came out at 0.23 µM. The “intrinsic cytotoxicity (in words)” value in the series on HeLa cells and in the series on HEK293A cells was “completely suppressed cell growth at 100 μM” in each case.

Consider `C=C(C)[C@@H]1CC=C(CN/C(C)=C2\C(=O)C=C3Oc4c(C(C)=O)c(O)c(C)c(O)c4[C@@]3(C)C2=O)CC1` [11e, (2R,4E)-10-Acetyl-11,13-dihydroxy-2,12-dimethyl-4-[1-({[(4S)-4-(prop-1-en-2-yl)cyclohex-1-en-1-yl]methyl}amino)ethylidene]-8-oxatricyclo[7.4.0.0^2,7]trideca-1(13),6,9,11-tetraene-3,5-dione], for which the concentration for half-maximal inhibition (IC50) on TDP1 (setting [1]), on TDP1 (setting [2]), at TDP1 (setting [3]) and on TDP1 (setting [4]) was more than 10 µM in each case. Besides, the “IC50, TDP1 activity” value against TDP1 (real-time fluorescent test, 1.5 nM TDP1, 50 nM substrate, 26 °C) is “did not inhibit the enzyme”.

For `CC(=O)c1c(O)c(C)c(O)c2c1OC1=CC(=O)/C(=C(/C)NCCCC(=O)OCC[C@H](C)CCC=C(C)C)C(=O)[C@@]12C` [13a, (3R)-3,7-Dimethyloct-6-en-1-yl 4-({1-[(2R,4E)-10-acetyl-11,13-dihydroxy-2,12-dimethyl-3,5-dioxo-8-oxatricyclo[7.4.0.0^2,7]trideca-1(13),6,9,11-tetraen-4-ylidene]ethyl}amino)butanoate], the IC50 at TDP1 (setting [1]), on TDP1 (setting [2]), at TDP1 (setting [3]) and on TDP1 (setting [4]) was more than 10 µM each time.

Consider `CC(=O)c1c(O)c(C)c(O)c2c1OC1=CC(=O)/C(=C(/C)NCCCC(=O)OC/C=C(\C)CCC=C(C)C)C(=O)[C@@]12C` [13b, (2E)-3,7-Dimethylocta-2,6-dien-1-yl 4-({1-[(2R,4E)-10-acetyl-11,13-dihydroxy-2,12-dimethyl-3,5-dioxo-8-oxatricyclo[7.4.0.0^2,7]trideca-1(13),6,9,11-tetraen-4-ylidene]ethyl}amino)butanoate], for which the IC50 on TDP1 (setting [1]), on TDP1 (setting [2]), at TDP1 (setting [3]) and on TDP1 (setting [4]) was more than 10 µM in each case.

In the case of `CC(=O)c1c(O)c(C)c(O)c2c1OC1=CC(=O)/C(=C(/C)NCCCC(=O)OCCC3=CC[C@H]4C[C@@H]3C4(C)C)C(=O)[C@@]12C` [13c, 2-[(1R,5S)-6,6-Dimethylbicyclo[3.1.1]hept-2-en-2-yl]ethyl 4-({1-[(2R,4E)-10-acetyl-11,13-dihydroxy-2,12-dimethyl-3,5-dioxo-8-oxatricyclo[7.4.0.0^2,7]trideca-1(13),6,9,11-tetraen-4-ylidene]ethyl}amino)butanoate], the IC50 on TDP1 (setting [1]), on TDP1 (setting [2]), at TDP1 (setting [3]) and at TDP1 (setting [4]) was more than 10 µM in each case.

Consider `CC(=O)c1c(O)c(C)c(O)c2c1OC1=CC(=O)/C(=C(/C)NCCCC(=O)OCC3=CC[C@H]4C[C@@H]3C4(C)C)C(=O)[C@@]12C` [13d, [(1R,5S)-6,6-Dimethylbicyclo[3.1.1]hept-2-en-2-yl]methyl 4-({1-[(2R,4E)-10-acetyl-11,13-dihydroxy-2,12-dimethyl-3,5-dioxo-8-oxatricyclo[7.4.0.0^2,7]trideca-1(13),6,9,11-tetraen-4-ylidene]ethyl}amino)butanoate], for which the IC50 at TDP1 (setting [1]), on TDP1 (setting [2]), on TDP1 (setting [3]) and on TDP1 (setting [4]) was more than 10 µM in each case.

In the case of `C=C(C)[C@@H]1CC=C(COC(=O)CCCN/C(C)=C2\C(=O)C=C3Oc4c(C(C)=O)c(O)c(C)c(O)c4[C@@]3(C)C2=O)CC1` [13e, [(4S)-4-(Prop-1-en-2-yl)cyclohex-1-en-1-yl]methyl 4-({1-[(2R,4E)-10-acetyl-11,13-dihydroxy-2,12-dimethyl-3,5-dioxo-8-oxatricyclo[7.4.0.0^2,7]trideca-1(13),6,9,11-tetraen-4-ylidene]ethyl}amino)butanoate], the half-inhibitory concentration (IC50) at TDP1 (setting [1]), on TDP1 (setting [2]), on TDP1 (setting [3]) and on TDP1 (setting [4]) was more than 10 µM throughout.

The values above are taken from PMC8301776, “New Hybrid Compounds Combining Fragments of Usnic Acid and Monoterpenoids for Effective Tyrosyl-DNA Phosphodiesterase 1 Inhibition” (Biomolecules, 2021).
